Drawing on ChEMBL document CHEMBL1150870, “Trichoflectin, a bioactive azaphilone from the ascomycete Trichopezizella nidulus” (1998), this text covers zone of inhibition for three molecules.

SMILES strings stand for the structures.

What all share (type): functional
Common to all, as to conditions: read-out: IZ

One assay deals with Rhizomucor miehei. The assay is described as follows: Antimicrobial activity against Mucor miehei at 50 ug/disk.
For another assay, the system named is Bacillus subtilis. Briefly: Antimicrobial activity against Bacillus subtilis at 50 ug/disk.
A further assay concerns Lachnellula. The assay is described as follows: Inhibition of DHN-melanin biosynthesis in Lachnellula sp. A32-89 assessed as pigment inhibition zone at 50 ug/disk by agar diffusion assay.

For `C/C=C/C1=CC2=CC(=O)[C@@]3(C)OC(=O)C(C(C)=O)=C3C2=CO1` [TRICHOFLECTIN], the zone of inhibition at 50 µg/disc was found to be 23 mm with Rhizomucor miehei, 23 mm with Bacillus subtilis and 19 mm with Lachnellula.
As for `CC1=CC2=C(CO1)C(=O)c1c(O)cc(O)cc1C2=O`, in the assay with Lachnellula, the zone of inhibition at 50 µg/disc is 14 mm.
As for `COc1cc(O)c2c(c1)C(=O)C1=C(COC(C)=C1)C2=O`, the zone of inhibition at 50 µg/disc with Lachnellula was 14 mm.
